{
  "source": "patent US12528776B2",
  "about": "“Composition and method for treating dermatological disorders using retinamides” (UNIVERSITY OF MARYLAND, Baltimore, priority 2019, dated 2026)",
  "key": {"retinoic acid metabolism": {"tested_on": "retinoic acid metabolism", "conditions": "racemate versus enantiomers; cited from earlier work"}, "[1]": {"tested_on": "keratin 10 (K10), keratin 19 (K19) and filaggrin expression in RHE cultures", "assay": "RHE immunostaining for K10, K19 and filaggrin", "conditions": "0.02% topical, 3 days, immunolabelling"}, "NHAK cells": {"tested_on": "NHAK cells", "assay": "Anti-proliferative effect of ATRA or 13-CRA alone or combined with low-dose VNLG-152", "format": "cell-based, human", "conditions": "for GI50: Homo sapiens, alone, 0.1 to 10,000 nM, continuous incubation, read-out: GI50, ATRA or 13-CRA alone (Example 2); for fold enhancement of anti-proliferative activity (GI50) by VNLG-152: in combination with 40 nM VNLG-152, NHAK"}, "[2]": {"tested_on": "reconstructed human epidermis (RHE)", "assay": "Reconstructed human epidermis (RHE) histology, H and E", "format": "cell-based", "conditions": "0.02% topical, 3 days at 37° C.", "experimental": "RHE tissues were treated with indicated concentration and incubated for 3 days at 37° C. Following treatment tissues were fixed, sectioned and stained with H and E. Representative images from three independent experiments are shown in FIG. 5A to 5E. RHE tissues were untreated (FIG. 5A) or treated with vehicle (ethanol) (FIG. SB), ATRA 0.02% solution (FIG. 5C), 13-CRA 0.02% (FIG. 5D); and VNLG-152 0.02% (FIG. 5E). […] In the figures, “SC” refers to “stratum corneum”, “SG” to “stratum granulosum”, “SS” to “stratum spinosum”, and “SB” to “stratum basale”."}, "[3]": {"tested_on": "immortalized human sebocytes SZ95", "conditions": "after 9 days; cited from earlier work"}, "[4]": {"tested_on": "adult normal human keratinocytes (NHAKs)", "assay": "Growth inhibition (MTT) of adult normal human keratinocytes", "format": "cell-based", "conditions": "for GI50: Homo sapiens, Keratinocyte; for fold more potent inhibition of growth than 13-CRA (isotretinoin), NHAKs: ratio of GI50 values versus 13-CRA"}, "RARα,β,γ receptors": {"tested_on": "RARα,β,γ receptors", "conditions": "significantly less potent than ATRA; cited from earlier work"}, "[5]": {"tested_on": "SEB-1 human primary sebocytes", "assay": "Growth inhibition (MTT) of SEB-1 sebocytes", "format": "cell-based", "conditions": "for GI50: Homo sapiens, 168 h, MTT assay, 7 days treatment; for fold more potent inhibition of growth than 13-CRA (isotretinoin), SEB-1: ratio of GI50 values versus 13-CRA", "experimental": "Human adult keratinocytes (pooled) (ZenBio Inc., Research Triangle Park, NC) were cultured in human adult keratinocyte growth medium (KM-2). The SEB-1 human primary sebocytes (ZenBio Inc., Research Triangle Park, NC) were cultured and maintained in sebocyte growth medium. Cells were plated 1 day prior to treatment. Retinamides (VNLG-152 and VNHM-1-73) and other clinically relevant retinoids (13-CRA, 9-CRA, and ATRA) were treated at indicated concentration and time periods and incubated at 37° C. in 5% CO2.\nAssays for normal human adult keratinocytes (NHAKs) and human SEB-1 sebocytes growth inhibition were performed as described previously^20. Adult human keratinocytes or sebocytes were treated with VNLG-152,VNHM-1-73 and other retinoids for 7 days. MTT assay was performed at the end of the experiment. Results represent the mean±standard deviation of three independent experiments."}, "keratinocytes": {"tested_on": "keratinocytes", "assay": "Acridine orange/ethidium bromide (AO/EB) dual staining apoptosis assay", "format": "cell-based, human", "conditions": "VNLG-152 0.2 μM, 48 and 72 h; versus 13-CRA and ATRA 5 and 10 μM", "experimental": "(§1) For acridine orange/ethidium bromide (AO/EB) dual staining assay, keratinocytes were treated with indicated concentrations of the compounds for 24.48 and 72 h. At the end of incubation period, 100 μl of 1:1 ratio of acridine orange (0.1%) and ethidium bromide (0.2%) in PBS were added to the cells and incubated at 37° C. and 5% CO2 for 30 min. Cells were then immediately analyzed using Nikon TE2000 fluorescence microscope. Assessment of the apoptotic potential by in situ Cell Death Detection assay was done as per protocol of the manufacturer (Roche Diagnostics).\nIn FIGS. 3A and 3B, the plates were analyzed for early apoptotic and viable cells using acridine orange/ethidium bromide staining. […] In FIG. 3C, the bars are means of three replicate determinations plus standard deviations. Statistical analysis was performed with ANOVA two factor with replication (*P<0.05, **P<0.01, ***P<0.001)."}, "[6]": {"tested_on": "mTORC1/4E-BP1/p70SK6 signaling", "conditions": "cited from earlier work"}, "[7]": {"tested_on": "castration-resistant prostate cancer xenograft", "conditions": "in vivo; cited from earlier work"}, "[8]": {"tested_on": "triple negative breast cancer (TNBC) tumor", "conditions": "in vivo; cited from earlier work"}, "NHAK": {"tested_on": "NHAK", "assay": "TUNEL (in situ cell death detection) apoptosis assay", "format": "cell-based, human", "conditions": "72 hours", "experimental": "as §1\nThe apoptosis inducing potential of VNLG-152 was evaluated by TUNEL assay in NHAK. The individual cell lines as indicated were seeded in 8 well chamber slides, and treated with indicated concentrations and times of 13-CRA, ATRA and VNLG-/152. After 72 hours, the plates were analyzed for TUNEL positive staining. Statistical analysis was performed with ANOVA two factor with replication (*P<0.05, **P<0.01, ***P<0.001)."}, "[9]": {"conditions": "read-out: GI50 values in inhibiting NHAKs and sebocytes (range over both cell types)"}, "[10]": {"conditions": "168 h, MTT assay, 7 days treatment, read-out: GI50, growth and proliferation of adult keratinocytes (NHAKs)"}},
  "note": "Like-named read-outs stand apart in the source and are kept apart here.",
  "data": [
    {"compound": "COC(=O)/C=C(C)/C=C/C=C(C)/C=C/C1=C(C)C(n2ccnc2)CCC1(C)C", "note": "(racemic) [(±)-VN-12-1]", "values": [
      {"measurement": "fold more potent than either pure (4S)-(+)- or (4R)-(−)- enantiomer", "setting": "retinoic acid metabolism", "result": "up to 28 fold"}
    ]},
    {"compound": "CC1=C(/C=C/C(C)=C/C=C/C(C)=C/C(=O)O)C(C)(C)CCC1", "note": "[ATRA, all-trans-retinoic acid]", "values": [
      {"measurement": "expression of K10 and filaggrin in sb and sg layers of RHE", "setting": "[1]", "result": "reduced the expression of these proteins"},
      {"measurement": "GI50", "setting": "NHAK cells", "result": 63100, "unit": "nM"},
      {"measurement": "fold enhancement of anti-proliferative activity (GI50) by VNLG-152", "setting": "NHAK cells", "result": 200, "unit": "fold"},
      {"measurement": "RHE morphology after topical treatment", "setting": "[2]", "result": "loss of keratohyalin granules in the upper granular layer"},
      {"measurement": "reduction of proliferation of SZ95 sebocytes", "setting": "[3]", "result": "approximately 50%"}
    ]},
    {"compound": "CC1=C(/C=C/C(C)=C\\C=C\\C(C)=C\\C(=O)O)C(C)(C)CCC1", "note": "[Compound 9-CRA, 9-cis-retinoic acid]", "values": [
      {"measurement": "reduction of proliferation of SZ95 sebocytes", "setting": "[3]", "result": "approximately 50%"}
    ]},
    {"compound": "CC1=C(/C=C/C(C)=C/C=C/C(C)=C\\C(=O)O)C(C)(C)CCC1", "note": "[Compound 13-CRA, 13-cis-retinoic acid]", "values": [
      {"measurement": "GI50", "setting": "[4]; [9]", "result": "26000 to 96400", "unit": "nM"},
      {"measurement": "GI50", "setting": "NHAK cells", "result": 75800, "unit": "nM"},
      {"measurement": "fold enhancement of anti-proliferative activity (GI50) by VNLG-152", "setting": "NHAK cells", "result": 123, "unit": "fold"},
      {"measurement": "RHE morphology after topical treatment", "setting": "[2]", "result": "loss of keratohyalin granules in the upper granular layer"},
      {"measurement": "reduction of proliferation of SZ95 sebocytes", "setting": "[3]", "result": "approximately 50%"}
    ]},
    {"compound": "CC1=C(/C=C/C(C)=C/C=C/C(C)=C/C(=O)O)C(C)(C)CCC1n1ccnc1", "note": "(centres unmarked) [VN/14-1]", "values": [
      {"measurement": "RAR binding and activation", "setting": "RARα,β,γ receptors", "result": "binds and activates the RARα,β,γ receptors"}
    ]},
    {"compound": "CC1=C(/C=C/C(C)=C/C=C/C(C)=C\\C(=O)NCc2ccc(O)cc2)C(C)(C)CCC1n1ccnc1", "note": "(centres unmarked) [VNHM-1-73, (2Z,4E,6E,8E)-9-(3-(1H-imidazol-1-yl)-2,6,6-trimethylcyclohex-1-en-1-yl)-N-(4-hydroxybenzyl)-3,7-dimethylnona-2,4,6,8-tetraenamide]", "values": [
      {"measurement": "GI50", "setting": "[4]; [10]", "result": 1280, "unit": "nM"},
      {"measurement": "fold more potent inhibition of growth than 13-CRA (isotretinoin), NHAKs", "setting": "[4]", "result": 59.3, "unit": "fold"},
      {"measurement": "GI50", "setting": "[5]", "result": 467, "unit": "nM"},
      {"measurement": "fold more potent inhibition of growth than 13-CRA (isotretinoin), SEB-1", "setting": "[5]", "result": 85, "unit": "fold"}
    ]},
    {"compound": "CC1=C(/C=C/C(C)=C/C=C/C(C)=C/C(=O)Nc2ccc(F)cc2)C(C)(C)CCC1n1ccnc1", "note": "(centres unmarked) [VNLG-152]", "values": [
      {"measurement": "pro-apoptotic effect, AO/EB dual staining", "setting": "keratinocytes", "result": "strong pro-apoptotic effects"},
      {"measurement": "expression of K10 and filaggrin in sb and sg layers of RHE", "setting": "[1]", "result": "reduced the expression of these proteins"},
      {"measurement": "GI50", "setting": "[4]; [10]", "result": 239, "unit": "nM"},
      {"measurement": "GI50", "setting": "[4]; [9]", "result": "66 to 239", "unit": "nM"},
      {"measurement": "fold more potent inhibition of growth than 13-CRA (isotretinoin), NHAKs", "setting": "[4]", "result": 317.4, "unit": "fold"},
      {"measurement": "inhibition of mTORC1 signaling", "setting": "[6]", "result": "potently inhibits mTORC1/4E-BP1/p70SK6 signaling"},
      {"measurement": "effect on castration-resistant prostate cancer xenograft growth", "setting": "[7]", "result": "suppress EMT and castration-resistant prostate cancer xenograft growth"},
      {"measurement": "anti-proliferative effect at low dose", "setting": "NHAK cells; 40 nM VNLG-152 alone, NHAK", "result": "< 10", "unit": "%"},
      {"measurement": "RHE morphology after topical treatment", "setting": "[2]", "result": "loss of keratohyalin granules in the upper granular layer"},
      {"measurement": "effect on TNBC tumor growth and metastasis", "setting": "[8]", "result": "potently inhibits triple negative breast cancer (TNBC) tumor growth and metastasis"},
      {"measurement": "induction of apoptosis versus control (TUNEL)", "setting": "NHAK; 0.2 μM", "result": "~50", "unit": "%"},
      {"measurement": "induction of apoptosis (TUNEL)", "setting": "NHAK; 1 μM", "result": "~84", "unit": "%"},
      {"measurement": "GI50", "setting": "[5]", "result": 66, "unit": "nM"},
      {"measurement": "fold more potent inhibition of growth than 13-CRA (isotretinoin), SEB-1", "setting": "[5]", "result": 603, "unit": "fold"},
      {"measurement": "times more potent than 13-CRA in reducing the growth of SEB-1 sebocytes", "setting": "[5]; versus 13-CRA", "result": "about 35 times"}
    ]}
  ]
}
